Holding throughout (experiment): NCI anticancer screen, dose series, 48 h
The subject of assay [1] is K-562 leukemia.
The subject of assay [2] is SK-MEL-2 melanoma.
Assay [3] has as its system NCI-H23 lung.
Assay [4] relates to SK-OV-3 ovarian.
In assay [5] the test system is SF-539 CNS.
Assay [6] relates to OVCAR-5 ovarian.
Assay [7] concerns OVCAR-8 ovarian.
The test system of assay [8] is HOP-92 NSCLC.
Assay [9] concerns IGROV1 ovarian.
Assay [10] concerns M14 melanoma.
The test system of assay [11] is OVCAR-3 ovarian.
The subject of assay [12] is HCT-15 colon.
For assay [13], the system named is SF-295 CNS.
The subject of assay [14] is A549 NSCLC.
The subject of assay [15] is SF-268 CNS.
Assay [16] has as its system CAKI-1 renal.
Assay [17] concerns DU-145 prostate.
For assay [18], the system named is OVCAR-4 ovarian.

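Where inhibition never reached the appropriate level, the endpoint shown equals the highest concentration tested. Otherwise, values were interpolated linearly from a five-concentration, 48-hour dose response in 96-well plates. At the TGI there is no net growth.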 Some results are limits rather than exact numbers.

The values below come from PubChem BioAssay (NCI).

`O=C1c2ccccc2S[C@@H](O)[C@@H]2CCCN12`: the TGI in assay [1], in [2], in assay [3], in [4], in assay [5] and in [6] was above 100 µM throughout. Besides, the TGI is above 100 µM in assay [7]; above 100 µM in [8]; 87.9 µM in assay [9]; above 100 µM in [10]; above 100 µM in [11]; above 100 µM in [12]. The TGI in [13], in assay [14] and in [15] was above 100 µM throughout.
For `COc1cccc(C2c3cc4c(cc3OC(N3CCCC3)C2C)OCO4)c1` (stereo unspecified), the TGI was 5.72 µM in assay [1]; 23.6 µM in assay [2]; above 100 µM in assay [3]; 24.9 µM in assay [5]; 82.1 µM in [6]; 8.61 µM in [16]. The TGI was above 100 µM in assay [7]; 58.6 µM in [17]; 12.6 µM in [8]; 38.7 µM in [9]; 21.1 µM in assay [10]; 28.6 µM in assay [11]. Also, the TGI was above 100 µM in [12], 37.8 µM in assay [13], above 100 µM in [14] and 76.8 µM in assay [15].
With `O=C1NC(Nc2cccc(Cl)c2)=N/C1=C\c1ccc(Cl)c(Cl)c1`, the TGI stood at 14.5 µM in [1]; 6.77 µM in assay [2]; 14.1 µM in [3]; 27.5 µM in [4]; 22.2 µM in assay [5]; 5.49 µM in [18]. The TGI in [6] turned out to be 21.8 µM; in assay [16] it was 18.4 µM; in [7], 16 µM; in assay [17], 20.6 µM; in assay [8] it was 11.4 µM; in assay [9] it was 18.7 µM. For the same molecule, the TGI in assay [10] is 14.9 µM; in assay [11], 19.7 µM; in assay [12], 18.6 µM; in [13], 17.2 µM; in [14], 16 µM; in assay [15], 19.4 µM.
As to `COc1cc2c(c(OC)c1OC)-c1ccc(SC)c(=O)cc1C(CC(=O)Oc1ccc([N+](=O)[O-])cc1)C2` (stereo unspecified), the TGI was above 48.8 µM in assay [2]; 1.88 µM in [3]; above 100 µM in [4]; 0.636 µM in [5]; above 43.6 µM in [18]; above 100 µM in assay [6]. The TGI is above 62.8 µM in assay [16]; 5.08 µM in [7]; above 48.3 µM in assay [8]; above 49.2 µM in [9]; 1.53 µM in assay [10]; 0.905 µM in assay [11]. In addition, the TGI is above 100 µM in [12], above 45.6 µM in [13], above 100 µM in [14] and 31.4 µM in assay [15].
Turning to `CO/N=C(\C(=O)Nc1cncs1)c1csc(NC(c2ccccc2)(c2ccccc2)c2ccccc2)n1`, the TGI in [1], in assay [2], in [3], in assay [4], in assay [5] and in [18] was above 10 µM in each case. In addition, the TGI in assay [6], in [16], in [7], in assay [17], in assay [8] and in [9] was above 10 µM each time. Moreover, the TGI in assay [10], in assay [11], in [12], in assay [13], in [14] and in [15] was above 10 µM in each case.
Turning to `CCOC(=O)CC(NC(=O)c1nc[nH]c1[N+](=O)[O-])C(=O)OCC` (stereo unspecified), the TGI is above 100 µM in [1]; above 100 µM in assay [2]; 49.8 µM in assay [3]; above 100 µM in assay [4]; above 100 µM in assay [5]; above 100 µM in assay [18]. The TGI in [16], in [7], in assay [9], in assay [10], in assay [11] and in assay [12] was above 100 µM each time. Moreover, the TGI in [13], in assay [14] and in [15] was above 100 µM throughout.
`COc1cc(C2c3cc4c(cc3[C@@H](Nc3ccccc3)C3CO[C@@H](OC)[C@H]23)OCO4)cc(OC)c1O` (stereo partly specified): the TGI in [1] is above 25 µM; in assay [4], above 25 µM; in assay [5], 12.1 µM; in [18], above 25 µM; in assay [6], 23.8 µM; in assay [7], above 25 µM. For the same molecule, the TGI in assay [9] is above 25 µM; in assay [10], above 25 µM; in [12], above 25 µM; in assay [13], 12.4 µM; in [14], 12.1 µM; in [15] it was above 25 µM.
Consider `N#[O+].O=S(=O)([O-])[O-].[NH2-].[NH2-].[NH2-].[NH2-].[NH2-].[Ru+5]`, for which the TGI in assay [2], in assay [3], in assay [4], in assay [5], in [6] and in assay [16] was above 100 µM in each case. In addition, the TGI in assay [7], in assay [8], in assay [9], in assay [11], in assay [12] and in [13] was above 100 µM in each case. Also, the TGI in [14] and in assay [15] was above 100 µM in each case.
Turning to `CSc1ccc(C2C(Cl)C(=O)N2NC(=O)c2c(Cl)c(Cl)c(Cl)c(Cl)c2-c2nc3ccccc3[nH]2)cc1` (stereo unspecified), the TGI in [1] is above 100 µM; in [2], above 100 µM; in assay [3], 43.1 µM; in assay [4], 93.4 µM; in [5], 53.4 µM; in assay [6], 53.4 µM. Also, the TGI in assay [16] came to 42.8 µM; in [7], 59.9 µM; in assay [17], 31.3 µM; in [8] it was 25.1 µM; in [9], 2.14 µM; in assay [10], 56.7 µM. Moreover, the TGI in assay [11] was 50.7 µM; in assay [12] it was 60.4 µM; in assay [13], above 100 µM; in assay [14], above 100 µM; in assay [15], 64.4 µM.
